What follows are targets tested with NC(=O)CCCCC1CCSS1 [lipoamide] (assay: thermal stability z-score vs DMSO; higher = more thermally stabilized by treatment). Conditions: HeLa; lipoamide concentration 100 µM; arsenate co-treatment: 1 mM arsenate 1 h.
Method: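 Cellular thermal proteome profiling in HeLa cells. Cells were treated with 100 µM lipoamide for 1 h, with or without 1 mM arsenate for a further 1 h, then heated to ten temperatures (37-66.3 °C), and soluble protein was quantified by TMT mass spectrometry relative to 0.1% DMSO controls. The thermal stability score (sum of log2 fold changes minus the abundance score) was transformed to a z-score; mean of n = 3 experiments.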
Sequence of UniProt Q86SF2 (Q86SF2 whole entry): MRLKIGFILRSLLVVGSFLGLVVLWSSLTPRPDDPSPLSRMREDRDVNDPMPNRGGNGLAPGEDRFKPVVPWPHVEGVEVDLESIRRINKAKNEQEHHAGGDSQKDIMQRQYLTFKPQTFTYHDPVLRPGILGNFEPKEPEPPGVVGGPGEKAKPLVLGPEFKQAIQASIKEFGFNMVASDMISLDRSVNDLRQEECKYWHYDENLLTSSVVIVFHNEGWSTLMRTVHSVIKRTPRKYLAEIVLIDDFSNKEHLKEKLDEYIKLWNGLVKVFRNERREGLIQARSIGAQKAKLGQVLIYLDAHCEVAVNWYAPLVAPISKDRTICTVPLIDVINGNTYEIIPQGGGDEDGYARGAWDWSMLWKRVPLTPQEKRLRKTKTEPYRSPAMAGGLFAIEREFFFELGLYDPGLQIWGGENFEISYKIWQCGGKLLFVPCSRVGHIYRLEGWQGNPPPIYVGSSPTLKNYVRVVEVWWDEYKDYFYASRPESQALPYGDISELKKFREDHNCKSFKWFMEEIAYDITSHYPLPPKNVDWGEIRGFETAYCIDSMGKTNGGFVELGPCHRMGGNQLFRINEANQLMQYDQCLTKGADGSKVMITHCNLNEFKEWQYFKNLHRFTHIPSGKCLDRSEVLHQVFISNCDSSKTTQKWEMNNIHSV
Sequence of UniProt Q6VY07 (Q6VY07 whole entry, looked up): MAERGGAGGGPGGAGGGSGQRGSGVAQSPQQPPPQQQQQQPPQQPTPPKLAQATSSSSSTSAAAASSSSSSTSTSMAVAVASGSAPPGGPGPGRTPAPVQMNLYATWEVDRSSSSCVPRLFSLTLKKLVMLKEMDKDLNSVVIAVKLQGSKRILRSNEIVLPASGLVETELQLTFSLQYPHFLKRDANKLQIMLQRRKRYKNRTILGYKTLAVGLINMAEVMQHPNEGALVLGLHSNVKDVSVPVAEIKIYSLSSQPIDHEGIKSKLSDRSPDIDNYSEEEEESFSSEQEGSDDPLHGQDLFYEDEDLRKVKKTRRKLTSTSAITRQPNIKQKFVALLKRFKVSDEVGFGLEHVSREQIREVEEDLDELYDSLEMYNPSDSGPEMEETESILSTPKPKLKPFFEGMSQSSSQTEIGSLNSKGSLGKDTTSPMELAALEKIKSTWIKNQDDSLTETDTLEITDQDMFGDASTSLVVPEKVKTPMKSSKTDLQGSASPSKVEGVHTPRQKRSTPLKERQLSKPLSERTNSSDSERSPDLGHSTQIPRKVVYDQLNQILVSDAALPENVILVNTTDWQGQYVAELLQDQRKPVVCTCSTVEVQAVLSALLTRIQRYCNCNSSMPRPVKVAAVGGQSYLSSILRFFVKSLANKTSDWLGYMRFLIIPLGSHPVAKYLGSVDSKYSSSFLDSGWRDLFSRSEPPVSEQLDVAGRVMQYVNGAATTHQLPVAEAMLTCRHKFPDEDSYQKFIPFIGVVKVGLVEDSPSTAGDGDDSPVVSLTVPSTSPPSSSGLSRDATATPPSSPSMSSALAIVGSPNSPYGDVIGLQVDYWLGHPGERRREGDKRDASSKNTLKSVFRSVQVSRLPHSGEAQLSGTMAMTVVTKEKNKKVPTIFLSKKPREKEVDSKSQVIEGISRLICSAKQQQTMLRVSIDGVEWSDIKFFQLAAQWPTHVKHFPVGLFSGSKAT
Sequence of UniProt Q12849 (Q12849 whole entry): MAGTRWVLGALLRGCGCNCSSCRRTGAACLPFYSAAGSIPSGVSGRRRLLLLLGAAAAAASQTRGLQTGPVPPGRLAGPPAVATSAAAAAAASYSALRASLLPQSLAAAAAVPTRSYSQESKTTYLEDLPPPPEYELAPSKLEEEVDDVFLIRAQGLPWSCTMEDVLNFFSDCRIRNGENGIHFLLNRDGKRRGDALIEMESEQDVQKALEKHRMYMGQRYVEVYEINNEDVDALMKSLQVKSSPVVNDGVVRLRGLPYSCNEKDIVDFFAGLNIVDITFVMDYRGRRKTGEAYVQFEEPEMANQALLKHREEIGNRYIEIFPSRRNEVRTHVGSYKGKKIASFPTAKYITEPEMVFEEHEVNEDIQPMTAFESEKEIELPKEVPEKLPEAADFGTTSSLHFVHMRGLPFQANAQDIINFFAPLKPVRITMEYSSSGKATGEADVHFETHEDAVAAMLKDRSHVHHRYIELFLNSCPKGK
Sequence of UniProt P46063 (P46063 whole entry): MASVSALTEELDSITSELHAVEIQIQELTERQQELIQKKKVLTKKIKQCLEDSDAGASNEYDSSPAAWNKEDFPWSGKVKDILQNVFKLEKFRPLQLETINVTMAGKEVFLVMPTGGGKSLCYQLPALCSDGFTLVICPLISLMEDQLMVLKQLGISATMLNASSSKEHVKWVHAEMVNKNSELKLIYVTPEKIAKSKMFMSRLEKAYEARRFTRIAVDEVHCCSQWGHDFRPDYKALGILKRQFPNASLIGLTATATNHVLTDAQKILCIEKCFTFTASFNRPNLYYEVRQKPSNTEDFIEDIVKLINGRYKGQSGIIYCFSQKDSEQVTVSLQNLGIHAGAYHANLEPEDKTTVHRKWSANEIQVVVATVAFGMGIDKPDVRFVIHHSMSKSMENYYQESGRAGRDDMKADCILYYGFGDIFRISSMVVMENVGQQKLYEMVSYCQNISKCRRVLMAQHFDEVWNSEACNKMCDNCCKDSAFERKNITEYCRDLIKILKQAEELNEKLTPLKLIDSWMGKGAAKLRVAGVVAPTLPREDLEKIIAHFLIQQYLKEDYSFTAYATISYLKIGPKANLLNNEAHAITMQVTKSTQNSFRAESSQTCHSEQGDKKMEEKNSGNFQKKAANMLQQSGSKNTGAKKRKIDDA
Sequence of UniProt Q86XA9 (Q86XA9 whole entry): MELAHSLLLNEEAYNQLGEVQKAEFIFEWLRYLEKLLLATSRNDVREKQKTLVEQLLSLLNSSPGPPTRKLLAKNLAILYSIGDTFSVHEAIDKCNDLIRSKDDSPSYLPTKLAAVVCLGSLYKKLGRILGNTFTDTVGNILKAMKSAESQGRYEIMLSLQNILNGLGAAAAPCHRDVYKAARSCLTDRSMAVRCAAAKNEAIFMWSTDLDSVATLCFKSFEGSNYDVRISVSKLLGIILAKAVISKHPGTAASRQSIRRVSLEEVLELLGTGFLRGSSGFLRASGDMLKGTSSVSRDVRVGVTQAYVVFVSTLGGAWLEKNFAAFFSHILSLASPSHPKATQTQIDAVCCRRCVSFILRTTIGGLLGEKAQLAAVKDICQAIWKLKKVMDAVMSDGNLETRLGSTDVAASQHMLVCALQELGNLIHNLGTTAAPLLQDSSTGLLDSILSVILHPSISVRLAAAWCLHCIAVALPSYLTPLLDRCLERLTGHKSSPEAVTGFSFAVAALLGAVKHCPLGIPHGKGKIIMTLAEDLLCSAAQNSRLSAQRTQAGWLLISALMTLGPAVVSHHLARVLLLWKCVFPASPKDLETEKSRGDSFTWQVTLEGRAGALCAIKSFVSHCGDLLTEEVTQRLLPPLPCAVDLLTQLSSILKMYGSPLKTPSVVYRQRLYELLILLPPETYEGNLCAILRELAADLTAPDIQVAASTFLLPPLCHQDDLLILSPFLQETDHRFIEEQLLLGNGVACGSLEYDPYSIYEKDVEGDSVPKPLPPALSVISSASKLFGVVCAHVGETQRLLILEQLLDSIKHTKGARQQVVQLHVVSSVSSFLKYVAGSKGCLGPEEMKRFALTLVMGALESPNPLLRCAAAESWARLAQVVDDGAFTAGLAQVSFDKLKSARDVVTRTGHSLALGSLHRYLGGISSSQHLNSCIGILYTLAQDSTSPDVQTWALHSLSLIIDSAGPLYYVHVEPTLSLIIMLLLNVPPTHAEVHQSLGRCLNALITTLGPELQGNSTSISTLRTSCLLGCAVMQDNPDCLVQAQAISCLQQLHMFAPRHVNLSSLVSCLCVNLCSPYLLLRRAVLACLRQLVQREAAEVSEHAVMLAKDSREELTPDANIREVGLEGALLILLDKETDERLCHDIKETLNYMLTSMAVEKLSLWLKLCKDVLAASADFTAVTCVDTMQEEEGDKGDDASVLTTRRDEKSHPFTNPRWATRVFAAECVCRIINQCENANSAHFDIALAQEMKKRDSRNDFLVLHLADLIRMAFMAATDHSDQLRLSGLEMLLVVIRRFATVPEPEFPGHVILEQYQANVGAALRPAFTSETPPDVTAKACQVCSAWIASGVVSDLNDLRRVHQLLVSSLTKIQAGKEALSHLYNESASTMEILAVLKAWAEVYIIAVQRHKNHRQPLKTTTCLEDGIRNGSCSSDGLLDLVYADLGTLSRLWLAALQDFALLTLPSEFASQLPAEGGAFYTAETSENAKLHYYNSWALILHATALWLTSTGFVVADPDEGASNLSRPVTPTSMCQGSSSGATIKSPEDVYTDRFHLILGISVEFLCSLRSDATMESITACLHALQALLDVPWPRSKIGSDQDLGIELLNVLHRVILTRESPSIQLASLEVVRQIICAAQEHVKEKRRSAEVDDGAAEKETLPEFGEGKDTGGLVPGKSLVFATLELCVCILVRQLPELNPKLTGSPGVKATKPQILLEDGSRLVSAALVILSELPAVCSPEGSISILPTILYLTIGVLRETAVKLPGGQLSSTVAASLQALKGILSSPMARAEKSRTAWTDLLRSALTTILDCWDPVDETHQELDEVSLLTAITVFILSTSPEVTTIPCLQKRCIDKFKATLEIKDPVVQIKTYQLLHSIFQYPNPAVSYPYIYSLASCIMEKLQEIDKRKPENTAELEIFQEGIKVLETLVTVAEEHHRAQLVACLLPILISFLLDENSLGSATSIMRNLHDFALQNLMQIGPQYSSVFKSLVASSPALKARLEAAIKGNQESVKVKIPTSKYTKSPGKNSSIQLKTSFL
Sequence of UniProt O95295 (O95295 whole entry): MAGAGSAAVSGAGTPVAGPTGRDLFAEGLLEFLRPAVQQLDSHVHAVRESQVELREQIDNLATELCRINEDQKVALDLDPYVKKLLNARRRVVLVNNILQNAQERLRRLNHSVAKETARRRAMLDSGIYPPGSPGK
Work on MRPS33 (UniProt Q9Y291) yielded a thermal stability z-score of 0.0616. ZCCHC8 (UniProt Q6NZY4) showed a thermal stability z-score of 0.464. NPEPPS (UniProt P55786) was tested, and the thermal stability z-score was 0.502. With GDAP2 (UniProt Q9NXN4) the thermal stability z-score was -0.0509. PACS1 (UniProt Q6VY07) was tested, and the thermal stability z-score was -0.0876. With CAPN7 (UniProt Q9Y6W3) the thermal stability z-score was 0.28. TACC3 (UniProt Q9Y6A5) gave a thermal stability z-score of -0.148. Work on GALNT7 (UniProt Q86SF2) yielded a thermal stability z-score of 0.205. In the case of LMAN1 (UniProt P49257), the thermal stability z-score is reported as -3.38. For HPS6 (UniProt Q86YV9), the thermal stability z-score was 0.00908. In the case of HEXIM1 (UniProt O94992), the thermal stability z-score is reported as 0.736. WDR41 (UniProt Q9HAD4) gave a thermal stability z-score of -0.212. HEATR5A (UniProt Q86XA9) gave a thermal stability z-score of -0.931. With BLVRA (UniProt P53004) the thermal stability z-score was 0.283. Work on CDC5L (UniProt Q99459) yielded a thermal stability z-score of 0.945. In the case of NDUFAF7 (UniProt Q7L592), the thermal stability z-score is reported as -0.486. In the case of NBEAL2 (UniProt Q6ZNJ1), the thermal stability z-score is reported as -0.0914. FAM73A (UniProt Q8NAN2) gave a thermal stability z-score of -0.106. Target TACC1 (UniProt O75410) has a thermal stability z-score of 0.293. RECQL (UniProt P46063) gave a thermal stability z-score of 1.17. In the case of SETD1A (UniProt O15047), the thermal stability z-score is reported as 0.233. UBE4B (UniProt O95155) gave a thermal stability z-score of -0.444. Target NR4A1 (UniProt P22736) has a thermal stability z-score of 0.000871. SPAG7 (UniProt O75391) gave a thermal stability z-score of 0.493. ITPR2 (UniProt Q14571) gave a thermal stability z-score of -0.269. For PC (UniProt P11498), the thermal stability z-score was -0.429. For SNAPIN (UniProt O95295), the thermal stability z-score was 0.164. DENND6A (UniProt Q8IWF6) gave a thermal stability z-score of -0.149. With CINP (UniProt Q9BW66) the thermal stability z-score was -0.0967. Work on GRSF1 (UniProt Q12849) yielded a thermal stability z-score of -0.892. MIS12 (UniProt Q9H081) showed a thermal stability z-score of -0.0248. For FIGNL1 (UniProt Q6PIW4), the thermal stability z-score was -0.113. For PHLPP1 (UniProt O60346), the thermal stability z-score was 0.138. OBSL1 (UniProt O75147) gave a thermal stability z-score of -0.175. NHS (UniProt Q6T4R5) gave a thermal stability z-score of -0.604. With EHD1 (UniProt Q9H4M9) the thermal stability z-score was -0.0636. With THBS1 (UniProt P07996) the thermal stability z-score was -0.588. With STARD7 (UniProt Q9NQZ5) the thermal stability z-score was 0.0874. For ATG7 (UniProt O95352), the thermal stability z-score was -0.324. ODR4 (UniProt Q5SWX8) showed a thermal stability z-score of -0.0304. For BCL2L13 (UniProt Q9BXK5), the thermal stability z-score was 0.605. TMEM126B (UniProt Q8IUX1) was tested, and the thermal stability z-score was 1.31. With ATXN2 (UniProt Q99700) the thermal stability z-score was 0.168. BRD3 (UniProt Q15059) showed a thermal stability z-score of 0.0121. With GUK1 (UniProt Q16774) the thermal stability z-score was 0.321. With CBR1 (UniProt P16152) the thermal stability z-score was 0.136. Work on ARL6IP5 (UniProt O75915) yielded a thermal stability z-score of -0.0796. TMEM245 (UniProt Q9H330) gave a thermal stability z-score of 1.28. For PML (UniProt P29590), the thermal stability z-score was 1.95. In the case of CHD3 (UniProt Q12873), the thermal stability z-score is reported as 0.00382. For BMS1 (UniProt Q14692), the thermal stability z-score was 0.575. ARIH2 (UniProt O95376) showed a thermal stability z-score of 0.203. Work on ZC3H15 (UniProt Q8WU90) yielded a thermal stability z-score of -0.032. Target VCL (UniProt P18206) has a thermal stability z-score of -0.353. USP6NL (UniProt Q92738) gave a thermal stability z-score of 0.194. In the case of MITF (UniProt O75030), the thermal stability z-score is reported as -0.413. CD63 (UniProt P08962) was tested, and the thermal stability z-score was 0.764. Target CCDC174 (UniProt Q6PII3) has a thermal stability z-score of -0.407. In the case of RPL35 (UniProt P42766), the thermal stability z-score is reported as 0.579. MKRN2 (UniProt Q9H000) showed a thermal stability z-score of 0.303. For BAG1 (UniProt Q99933), the thermal stability z-score was -0.351. Target ATP7A (UniProt Q04656) has a thermal stability z-score of -0.29. With NOL3 (UniProt O60936) the thermal stability z-score was 0.615. In the case of PLOD2 (UniProt O00469), the thermal stability z-score is reported as -3.92. RALBP1 (UniProt Q15311) was tested, and the thermal stability z-score was 0.0469. UCHL3 (UniProt P15374) gave a thermal stability z-score of 0.844. PIGO (UniProt Q8TEQ8) was tested, and the thermal stability z-score was -1.23. Work on MAN2A1 (UniProt Q16706) yielded a thermal stability z-score of -0.502. With ALDH5A1 (UniProt P51649) the thermal stability z-score was 0.0808. With RPA2 (UniProt P15927) the thermal stability z-score was -0.131. Work on LRRFIP1 (UniProt Q32MZ4) yielded a thermal stability z-score of 0.409.

Same assay, conditions: HeLa; lipoamide concentration 100 µM; arsenate co-treatment: none
In the case of MRPS33 (UniProt Q9Y291), the thermal stability z-score is reported as 0.0342. Target ZCCHC8 (UniProt Q6NZY4) has a thermal stability z-score of 0.344. NPEPPS (UniProt P55786) was tested, and the thermal stability z-score was 0.202. Target GDAP2 (UniProt Q9NXN4) has a thermal stability z-score of -0.305. Work on PACS1 (UniProt Q6VY07) yielded a thermal stability z-score of 0.134. For CAPN7 (UniProt Q9Y6W3), the thermal stability z-score was 0.65. TACC3 (UniProt Q9Y6A5) gave a thermal stability z-score of -0.162. Work on GALNT7 (UniProt Q86SF2) yielded a thermal stability z-score of -0.0334. LMAN1 (UniProt P49257) was tested, and the thermal stability z-score was -2.78. HPS6 (UniProt Q86YV9) showed a thermal stability z-score of 0.132. In the case of HEXIM1 (UniProt O94992), the thermal stability z-score is reported as 0.591. For WDR41 (UniProt Q9HAD4), the thermal stability z-score was -0.267. HEATR5A (UniProt Q86XA9) showed a thermal stability z-score of 0.157. BLVRA (UniProt P53004) showed a thermal stability z-score of -0.236. Target CDC5L (UniProt Q99459) has a thermal stability z-score of 0.573. Work on NDUFAF7 (UniProt Q7L592) yielded a thermal stability z-score of -0.171. Target NBEAL2 (UniProt Q6ZNJ1) has a thermal stability z-score of 0.0428. Work on FAM73A (UniProt Q8NAN2) yielded a thermal stability z-score of 0.0979. In the case of TACC1 (UniProt O75410), the thermal stability z-score is reported as 0.0761. With RECQL (UniProt P46063) the thermal stability z-score was 0.899. SETD1A (UniProt O15047) showed a thermal stability z-score of -0.516. Work on UBE4B (UniProt O95155) yielded a thermal stability z-score of -0.412. For NR4A1 (UniProt P22736), the thermal stability z-score was 0.0723. With SPAG7 (UniProt O75391) the thermal stability z-score was 0.212. For ITPR2 (UniProt Q14571), the thermal stability z-score was -0.265. Work on PC (UniProt P11498) yielded a thermal stability z-score of -0.205. SNAPIN (UniProt O95295) showed a thermal stability z-score of 0.647. In the case of DENND6A (UniProt Q8IWF6), the thermal stability z-score is reported as -0.836. CINP (UniProt Q9BW66) showed a thermal stability z-score of -0.169. For GRSF1 (UniProt Q12849), the thermal stability z-score was -0.354. MIS12 (UniProt Q9H081) showed a thermal stability z-score of -0.061. Work on FIGNL1 (UniProt Q6PIW4) yielded a thermal stability z-score of -0.0699. PHLPP1 (UniProt O60346) showed a thermal stability z-score of -0.144. In the case of OBSL1 (UniProt O75147), the thermal stability z-score is reported as -0.0603. Work on NHS (UniProt Q6T4R5) yielded a thermal stability z-score of 0.0609.

From the supplement of paper PMC12463676, “Small-molecule dissolution of stress granules by redox modulation benefits ALS models” (Nature Chemical Biology, 2025)
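Note: each temperature applied for 3 min, abundance score taken as mean log2 fold change at the two lowest temperatures, z-score obtained by mean subtraction and division by SD.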
